pIC50, pKi: −log10 of the molar value.
Columns and labels:
[1] = biological target: T1, Sodium-dependent dopamine transporter (Homo sapiens, UniProt Q01959); assay: Compound was tested for inhibition of [125I]RTI-55 binding to dopamine transporter in HEK cells; format: cell-based, HEK293
[2] = biological target: T2, Sodium-dependent noradrenaline transporter (Homo sapiens, UniProt P23975); assay: Compound was tested for inhibition of [3H]NE binding to norepinephrine transporter HEK cells; format: cell-based, HEK293
T2 sequence (P23975 whole entry): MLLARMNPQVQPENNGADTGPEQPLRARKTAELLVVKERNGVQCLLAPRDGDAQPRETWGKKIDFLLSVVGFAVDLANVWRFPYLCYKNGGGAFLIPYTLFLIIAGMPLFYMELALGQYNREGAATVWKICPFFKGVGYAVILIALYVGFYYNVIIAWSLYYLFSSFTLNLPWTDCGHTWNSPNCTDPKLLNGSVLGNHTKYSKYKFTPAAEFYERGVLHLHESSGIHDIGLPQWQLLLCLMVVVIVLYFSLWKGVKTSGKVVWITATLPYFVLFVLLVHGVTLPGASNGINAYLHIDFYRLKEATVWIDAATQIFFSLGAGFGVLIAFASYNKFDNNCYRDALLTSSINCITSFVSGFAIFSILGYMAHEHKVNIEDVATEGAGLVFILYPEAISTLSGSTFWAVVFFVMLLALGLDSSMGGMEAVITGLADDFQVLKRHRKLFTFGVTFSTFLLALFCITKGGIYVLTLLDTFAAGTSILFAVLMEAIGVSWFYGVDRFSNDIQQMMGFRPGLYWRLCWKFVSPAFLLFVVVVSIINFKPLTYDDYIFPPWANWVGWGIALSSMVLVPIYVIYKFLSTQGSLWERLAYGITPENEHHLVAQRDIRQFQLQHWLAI

[3] = biological target: T1, Sodium-dependent dopamine transporter; assay: Ratio of uptake inhibition to binding affinity to human DAT (IC50/Ki)
[4] = biological target: T2, Sodium-dependent noradrenaline transporter; assay: Compound was tested for inhibition of [125I]-RTI-55 binding to norepinephrine transporter HEK cells; format: cell-based, HEK293
[5] = biological target: T3, Sodium-dependent serotonin transporter (Homo sapiens, UniProt P31645); assay: Compound was tested for inhibition of [3H]5-HT binding to Serotonin transporter in HEK cells; format: cell-based, HEK293
Target sequence in this assay (P31645 whole entry): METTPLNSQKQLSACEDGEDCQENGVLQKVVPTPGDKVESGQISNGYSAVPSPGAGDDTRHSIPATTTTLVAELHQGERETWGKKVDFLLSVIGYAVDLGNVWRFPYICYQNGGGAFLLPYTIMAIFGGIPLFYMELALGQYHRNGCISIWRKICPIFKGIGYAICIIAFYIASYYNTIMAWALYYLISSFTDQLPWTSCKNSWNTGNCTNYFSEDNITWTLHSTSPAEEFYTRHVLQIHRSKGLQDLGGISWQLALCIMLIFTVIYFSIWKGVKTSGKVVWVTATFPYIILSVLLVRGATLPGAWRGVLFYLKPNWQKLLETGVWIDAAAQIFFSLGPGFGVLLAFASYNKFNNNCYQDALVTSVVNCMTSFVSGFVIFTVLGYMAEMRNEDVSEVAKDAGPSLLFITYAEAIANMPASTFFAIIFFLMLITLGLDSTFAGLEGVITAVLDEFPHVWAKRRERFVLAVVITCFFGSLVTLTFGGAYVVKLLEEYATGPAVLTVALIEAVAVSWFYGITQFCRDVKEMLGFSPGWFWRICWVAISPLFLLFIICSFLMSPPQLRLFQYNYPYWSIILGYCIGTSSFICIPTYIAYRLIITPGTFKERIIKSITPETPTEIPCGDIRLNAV

[6] = biological target: T1, Sodium-dependent dopamine transporter; assay: Compound was tested for inhibition of [3H]DA binding to dopamine (DAT) transporter in HEK cells; format: cell-based, HEK293
[7] = biological target: T2, Sodium-dependent noradrenaline transporter; assay: Ratio of uptake inhibition to binding affinity to human NET (IC50/Ki)
[8] = biological target: T3, Sodium-dependent serotonin transporter; assay: Ratio of uptake inhibition to binding affinity to human SERT (IC50/Ki)
Target sequence in this assay (P31645 whole entry, looked up): as the sequence (P31645 whole entry) above

[9] = biological target: T3, Sodium-dependent serotonin transporter; assay: Compound was tested for inhibition of [125I]RTI-55 binding to Serotonin transporter in HEK cells; format: cell-based, HEK293
Target sequence in this assay (P31645 whole entry): as above

T1 sequence (Q01959 whole entry): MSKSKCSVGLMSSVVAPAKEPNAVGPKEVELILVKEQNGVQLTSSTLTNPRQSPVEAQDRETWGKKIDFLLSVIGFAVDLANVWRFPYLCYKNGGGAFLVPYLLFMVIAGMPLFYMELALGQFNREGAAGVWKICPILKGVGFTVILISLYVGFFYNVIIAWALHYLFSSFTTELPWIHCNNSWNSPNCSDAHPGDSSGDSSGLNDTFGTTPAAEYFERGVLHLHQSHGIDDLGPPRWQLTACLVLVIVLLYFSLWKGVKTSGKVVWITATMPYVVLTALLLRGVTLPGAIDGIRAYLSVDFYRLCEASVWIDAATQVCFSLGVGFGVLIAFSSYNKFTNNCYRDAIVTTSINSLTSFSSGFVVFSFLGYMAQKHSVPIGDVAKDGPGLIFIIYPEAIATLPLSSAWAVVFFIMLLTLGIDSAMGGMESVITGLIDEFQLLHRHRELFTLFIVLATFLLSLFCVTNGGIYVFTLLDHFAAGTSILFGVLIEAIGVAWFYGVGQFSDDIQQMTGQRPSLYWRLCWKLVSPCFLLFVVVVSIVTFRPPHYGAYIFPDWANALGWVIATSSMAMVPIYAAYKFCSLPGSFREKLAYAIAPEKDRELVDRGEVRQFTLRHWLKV

| SMILES | pKi [1] | pIC50 [2] | Ratio [3] | pKi [4] | pIC50 [5] | pIC50 [6] | Ratio [7] | Ratio [8] | pKi [9] |
| --- | --- | --- | --- | --- | --- | --- | --- | --- | --- |
| CN1C2CCC1C(C(=O)NCCCCCCNC(=O)C1C(c3ccc(Cl)cc3)CC3CCC1N3C)C(c1ccc(Cl)cc1)C2 (configuration not stated) | 7.74 | 5.73 | 76.3 | 6.48 | 6.65 | 5.85 | 5.59 | 2.2 | 6.99 |
| CN1C2CCC1C(C(=O)NCCCNC(=O)C1C(c3ccc(Cl)cc3)CC3CCC1N3C)C(c1ccc(Cl)cc1)C2 (configuration not stated) | 7.19 | 6.58 | 0.8 | 5.53 | 6.36 | 7.28 | 0.09 | 1.17 | 6.45 |
| CN1C2CCC1C(C(=O)NCCCCNC(=O)C1C(c3ccc(Cl)cc3)CC3CCC1N3C)C(c1ccc(Cl)cc1)C2 (configuration not stated) | 7.66 | 5.65 | 76.8 | 5.68 | 6.75 | 5.78 | 1.09 | 0.06 | 5.50 |
| COC(=O)C1C(c2ccc(Cl)cc2)CC2CCC1N2C (configuration not stated) | 8.96 | – | – | – | – | 8.77 | – | – | – |
| CN1C2CCC1C(C(=O)NCCCCCCCCNC(=O)C1C(c3ccc(Cl)cc3)CC3CCC1N3C)C(c1ccc(Cl)cc1)C2 (configuration not stated) | 8.17 | 6.31 | 130 | 6.08 | 7.00 | 6.06 | – | 12.5 | 8.10 |

Source: ChEMBL document CHEMBL1136813, “Bivalent biogenic amine reuptake inhibitors” (Bioorg Med Chem Lett, 2003)
